pIC50: −log10 of the molar value.

T1 sequence (P06870 25-262): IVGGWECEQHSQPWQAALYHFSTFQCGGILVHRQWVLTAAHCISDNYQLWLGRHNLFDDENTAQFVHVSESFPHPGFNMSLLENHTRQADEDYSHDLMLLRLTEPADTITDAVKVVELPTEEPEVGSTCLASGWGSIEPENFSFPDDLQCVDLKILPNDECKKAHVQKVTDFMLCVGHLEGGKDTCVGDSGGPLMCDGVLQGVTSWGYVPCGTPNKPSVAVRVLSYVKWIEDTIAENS

The assay addresses T1, Human KLK1 (Homo sapiens, UniProt P06870).
T1 construct: purchased Callbiochem (Calbiochem)
The assay is described as follows: Determination of the IC50 for KLK1 (fluorogenic substrate H-DVal-Leu-Arg-AFC). The format is biochemical. Particulars: 37° C. The essentials:
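hKLK1 + H-DVal-Leu-Arg-AFC, 37° C, varied cpd conc. Initial rate by A410 change → residual activity → IC50.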
What is called pIC50 is the negative decadic logarithm of the IC50, by convention in mol/L. In the case of `Nc1ccc(CNC(=O)[C@H](NC(=O)[C@@H](N)Cc2ccccc2)C(C2CCCCC2)C2CCCCC2)cn1` [Example 216, (S)-2-Amino-N-{(R)-1-[(6-amino-pyridin-3-ylmethyl)-carbamoyl]-2,2-dicyclohexyl-ethyl}-3-phenyl-propionamide], the negative logarithm of the IC50 (pIC50) was 7.61.

`CCN(CC)[C@@H](CC(=O)OC)C(=O)N[C@@H](Cc1ccc(F)c(F)c1)C(=O)NCc1ccc(N)nc1` [Example 364, (S)—N-[(S)-1-[(6-Amino-pyridin-3-ylmethyl)-carbamoyl]-2-(3,4-difluoro-phenyl)-ethyl]-3-diethylamino-succinamic acid methyl ester] had a pIC50 of 7.36. Consider `CCC(C)[C@@H](N)C(=O)N[C@@H](Cc1cc(F)c(F)cc1F)C(=O)NCc1ccc(N)nc1` (stereo partly drawn) [Example 38, (R)-2-Amino-3-methyl-pentanoic acid [(S)-1-[(6-amino-pyridin-3-ylmethyl)-carbamoyl]-2-(2,4,5-trifluoro-phenyl)-ethyl]-amide], for which the pIC50 was 8.04. `CN(CCc1ccccc1)CC(=O)N[C@@H](Cc1ccc(F)c(F)c1)C(=O)NCc1ccc(N)nc1` [Example 161, (S)—N-(6-Amino-pyridin-3-ylmethyl)-3-(3,4-difluoro-phenyl)-2-[2-(methyl-phenethyl-amino)-acetylamino]-propionamide] had a pIC50 of 7.03. Under `CN1CCC[C@@H]1C(=O)N[C@@H](Cc1ccccc1Cl)C(=O)NCc1ccc(N)nc1` [Example 109, (R)-1-Methyl-pyrrolidine-2-carboxylic acid [(S)-1-[(6-amino-pyridin-3-ylmethyl)-carbamoyl]-2-(2-chloro-phenyl)-ethyl]-amide] stands 7.66. Turning to `CC(C)N(CC(=O)N[C@@H](CC1CCCCC1)C(=O)NCc1ccc(N)nc1)C(C)C` [Example 393, (S)—N-(6-Amino-pyridin-3-ylmethyl)-3-cyclohexyl-2-(2-diisopropylamino-acetylamino)-propionamide], the pIC50 was 7.57. In turn, `C[C@@H](C(=O)N[C@@H](Cc1ccc(F)c(F)c1)C(=O)NCc1ccc(N)nc1)N(C)C` [Example 344, (S)—N-[(S)-1-[(6-Amino-pyridin-3-ylmethyl)-carbamoyl]-2-(3,4-difluoro-phenyl)-ethyl]-2-dimethylamino-propionamide] showed a pIC50 of 7.67.

`Cc1cc[nH]c1C(=O)N[C@@H](Cc1ccc(Cl)cc1)C(=O)NCc1ccc(N)nc1` [Example 267, 3-Methyl-1H-pyrrole-2-carboxylic acid [(S)-1-[(6-amino-pyridin-3-ylmethyl)-carbamoyl]-2-(4-chloro-phenyl)-ethyl]-amide] showed a pIC50 of 8.09. Take `Cc1cc[nH]c1C(=O)N[C@@H](Cc1cc(Cl)ccc1Cl)C(=O)NCc1ccc(N)nc1` [Example 263, 3-Methyl-1H-pyrrole-2-carboxylic acid [(S)-1-[(6-amino-pyridin-3-ylmethyl)-carbamoyl]-2-(2,5-dichloro-phenyl)-ethyl]-amide]: the pIC50 is 7.69. `CC(C(=O)N[C@@H](Cc1cccc(Cl)c1)C(=O)NCc1ccc(N)nc1)N1CCCCC1` (stereo partly drawn) [Example 411, N-[(S)-1-[(6-Amino-pyridin-3-ylmethyl)-carbamoyl]-2-(3-chloro-phenyl)-ethyl]-2-piperidin-1-yl-propionamide] had a pIC50 of 7.90. Consider `CC(C)N(C)[C@@H](Cc1ccccc1)C(=O)N[C@@H](Cc1ccc(F)cc1)C(=O)NCc1ccc(N)nc1` [Example 373, (S)—N-[(S)-1-[(6-Amino-pyridin-3-ylmethyl)-carbamoyl]-2-(4-fluoro-phenyl)-ethyl]-2-(isopropyl-methyl-amino)-3-phenyl-propionamide], for which the pIC50 is 7.59.

As for `C[C@H](C(=O)N[C@@H](Cc1ccc(F)c(F)c1)C(=O)NCc1ccc(N)nc1)N1CCCC1` [Example 356, (R)—N-[(S)-1-[(6-Amino-pyridin-3-ylmethyl)-carbamoyl]-2-(3,4-difluoro-phenyl)-ethyl]-2-pyrrolidin-1-yl-propionamide], the negative-log IC50 (pIC50) is 8.42.

The compound `CCN(C)[C@@H](C)C(=O)N[C@@H](Cc1cccc(C)c1)C(=O)NCc1ccc(N)nc1` [Example 413, (S)—N-{(S)-1-[(6-Amino-pyridin-3-ylmethyl)-carbamoyl]-2-m-tolyl-ethyl}-2-(ethyl-methyl-amino)-propionamide] had a pIC50 of 8.10. Take `CCC(C)[C@@H](N)C(=O)N[C@@H](Cc1ccc(O)cc1)C(=O)NCc1ccc(N)nc1` (stereo partly drawn) [Example 37, (R)-2-Amino-3-methyl-pentanoic acid [(S)-1-[(6-amino-pyridin-3-ylmethyl)-carbamoyl]-2-(4-hydroxy-phenyl)-ethyl]-amide]: the pIC50 is 6.20. The compound `CC(C)CN(CC(=O)N[C@@H](Cc1ccc(F)c(F)c1)C(=O)NCc1ccc(N)nc1)CC(C)C` [Example 159, (S)—N-(6-Amino-pyridin-3-ylmethyl)-3-(3,4-difluoro-phenyl)-2-(2-diisobutylamino-acetylamino)-propionamide] had a pIC50 of 6.78. Take `CCC(C)[C@@H](N)C(=O)N[C@@H](Cc1csc2ccccc12)C(=O)NCc1ccc(N)nc1` (stereo partly drawn) [Example 41, (R)-2-Amino-3-methyl-pentanoic acid {(S)-1-[(6-amino-pyridin-3-ylmethyl)-carbamoyl]-2-benzo[b]thiophen-3-yl-ethyl}-amide]: the pIC50 was 9.12. The compound `CCN(CC)[C@@H](C)C(=O)N[C@@H](Cc1cccc(Cl)c1)C(=O)NCc1ccc(N)nc1` [Example 410, (S)—N-[(S)-1-[(6-Amino-pyridin-3-ylmethyl)-carbamoyl]-2-(3-chloro-phenyl)-ethyl]-2-diethylamino-propionamide] showed a pIC50 of 8.59.

For `Cc1ccc(C[C@H](NC(=O)c2[nH]c(C)cc2C)C(=O)NCc2ccc(N)nc2)cc1` [Example 253, 3,5-Dimethyl-1H-pyrrole-2-carboxylic acid {(S)-1-[(6-amino-pyridin-3-ylmethyl)-carbamoyl]-2-p-tolyl-ethyl}-amide], the pIC50 is 7.90. Compound `CC(C)CN(C)CC(=O)N[C@@H](Cc1ccc(F)c(F)c1)C(=O)NCc1ccc(N)nc1` [Example 168, (S)—N-(6-Amino-pyridin-3-ylmethyl)-3-(3,4-difluoro-phenyl)-2-[2-(isobutyl-methyl-amino)-acetylamino]-propionamide] showed a pIC50 of 6.54. `Cc1nc(N)ccc1CNC(=O)[C@@H](Cc1ccc(Cl)c(Cl)c1)NC(=O)[C@H]1CCCN1` [Example 189, (R)-Pyrrolidine-2-carboxylic acid [(R)-1-[(6-amino-2-methyl-pyridin-3-ylmethyl)-carbamoyl]-2-(3,4-dichloro-phenyl)-ethyl]-amide] gave a pIC50 of 8.38. Consider `Nc1ccc(CNC(=O)[C@H](Cc2ccc(F)c(F)c2)NC(=O)c2nc3ccccc3[nH]2)cn1` [Example 328, 1H-Benzoimidazole-2-carboxylic acid [(S)-1-[(6-amino-pyridin-3-ylmethyl)-carbamoyl]-2-(3,4-difluoro-phenyl)-ethyl]-amide], for which the pIC50 was 6.75. Take `CN1CCC[C@@H]1C(=O)N[C@@H](Cc1cccc(F)c1)C(=O)NCc1ccc(N)nc1` [Example 99, (R)-1-Methyl-pyrrolidine-2-carboxylic acid [(S)-1-[(6-amino-pyridin-3-ylmethyl)-carbamoyl]-2-(3-fluoro-phenyl)-ethyl]-amide]: the pIC50 is 7.77.

In turn, `Cc1ccc(-c2ccc(C(=O)N[C@@H](Cc3ccc(F)c(F)c3)C(=O)NCc3ccc(N)nc3)[nH]2)cc1` [Example 294, 5-p-Tolyl-1H-pyrrole-2-carboxylic acid [(S)-1-[(6-amino-pyridin-3-ylmethyl)-carbamoyl]-2-(3,4-difluoro-phenyl)-ethyl]-amide] had a pIC50 of 7.45.

On to `Nc1ccc(CNC(=O)[C@H](Cc2csc3ccccc23)NC(=O)c2cc3ccccc3[nH]2)cn1` [Example 335, 1H-Indole-2-carboxylic acid {(S)-1-[(6-amino-pyridin-3-ylmethyl)-carbamoyl]-2-benzo[b]thiophen-3-yl-ethyl}-amide], for which the pIC50 is 7.80. For `CCC(C)[C@@H](NC)C(=O)N[C@@H](Cc1ccc(F)cc1)C(=O)NCc1ccc(N)nc1` (stereo partly drawn) [Example 44, (R)-3-Methyl-2-methylamino-pentanoic acid [(S)-1-[(6-amino-pyridin-3-ylmethyl)-carbamoyl]-2-(4-fluoro-phenyl)-ethyl]-amide] the value was 8.27. For `CN[C@H](C)C(=O)N[C@@H](Cc1ccc(F)cc1)C(=O)NCc1ccc(N)nc1` [Example 87, (R)—N-[(S)-1-[(6-Amino-pyridin-3-ylmethyl)-carbamoyl]-2-(4-fluoro-phenyl)-ethyl]-2-methylamino-propionamide] the value was 8.19.

For the compound `Cc1ccccc1C[C@H](NC(=O)[C@H]1CCCN1C)C(=O)NCc1ccc(N)nc1` [Example 104, (R)-1-Methyl-pyrrolidine-2-carboxylic acid {(S)-1-[(6-amino-pyridin-3-ylmethyl)-carbamoyl]-2-o-tolyl-ethyl}-amide], the pIC50 was 7.61.

On to `CCN(CC)[C@@H](CO)C(=O)N[C@@H](CC1CCCCC1)C(=O)NCc1ccc(N)nc1` [Example 389, (S)—N-{(S)-1-[(6-Amino-pyridin-3-ylmethyl)-carbamoyl]-2-cyclohexyl-ethyl}-2-diethylamino-3-hydroxy-propionamide], for which the pIC50 is 7.37. For `CCC(C)[C@H](C(=O)N[C@@H](Cc1cccc(F)c1)C(=O)NCc1ccc(N)nc1)N(C)C` (stereo partly drawn) [Example 377, (R)-2-Dimethylamino-3-methyl-pentanoic acid [(S)-1-[(6-amino-pyridin-3-ylmethyl)-carbamoyl]-2-(3-fluoro-phenyl)-ethyl]-amide] the value was 7.49; for `Cc1ccc(C[C@H](NC(=O)[C@H]2CCCN2C)C(=O)NCc2ccc(N)nc2)cc1` [Example 106, (R)-1-Methyl-pyrrolidine-2-carboxylic acid {(S)-1-[(6-amino-pyridin-3-ylmethyl)-carbamoyl]-2-p-tolyl-ethyl}-amide], 8.41.
